“Also recorded” adds a separate entry of the source. Where no end group is shown, it is not given here.

The test system of one experiment is myeloma RPMI 8226 cell. Description: MTT assay, cell viability. Type of experiment: cell-based, human. The conditions noted are these: 20 μM peptide, 24 h, serum-free RPMI1640; FIGS. 1-2. As for the experimental part: The multiple myeloma line RPMI8226 or […] Raw264.7 macrophages were cultivated in complex medium (RPMI1640) supplemented with 10% (vol/vol) heat-inactivated fetal calf serum (Invitrogen), 50 μg/mL penicillin, 50 μg/mL streptomycin, and 2 mM L-glutamine at 37° C. in a 5% CO2 atmosphere
RPMI8226 cells or U266 cells were cultured in serum-free RPMI1640 medium for 24 h, and then cells seeded in 48-well culture plates (3×10^5 cells/well) and cultured in 0.5 ml fresh serum-free RPMI1640 medium containing 20 μM peptide for further 24 h. The cell viability was determined by the MTT assay.
50 μL of the MTT stock solution (5 mg MTT dissolved in 1 ml of sterile PBS) was added to each well, and 50 μL of the MTT stock solution was added to 500 μL of medium alone and used as a negative control. Each sample was Incubates at 37° C. for 4 hours. Aliquots (450 μl) from each sample were taken to a new well of 48-well culture plate, adding 100 μL DMSO, mixing thoroughly using the pipette and reacted at 37° C. for 20 min and absorbance was measured at 570 nm.
A general note: Tetrazolium dyes change colour on reduction, which living cells bring about.

Experiment [1] has as its system Murine dry eye model. Briefly: Dry eye animal model, fluorescein eye stain test for corneal injuries. The conditions noted are these: peptide 50 μM topically three times a day for 4 days; for reduction in mean corneal fluorescein staining score compared with vehicle treated control mice: FIG. 3 panel B. Type of experiment: in vivo, C57BL/6 mice. As for the experimental part:
(§1) C57BL/6 mice (7-8 weeks old, each weighted about 18 to 25 g) were used in this model system. All mice were maintained in the animal facility in accordance with the procedures approved by Mackay Memorial Hospital Review Board (Taiwan, R.O. C.). All animal experimental procedures were conducted according to the ARVO Statement for the Use of Animals in Ophthalmic and Vision Research.
(§2) Dry eyes were induced by placing mice in a controlled environment chamber (CEC) for 14 days in accordance with procedures previously described by Barabino et al (IVOS (2005) 46(8), 2766-2771). Mice placed in the CEC were exposed to a condition, in which relative humidity (RH) was maintained at <25%, temperature at 20-22° C., and airflow at about 15 L/min, for 12 hours per day. Control mice were kept in a normal environment (RH>50%, no air flow, temperature of 20-22° C.) for the same duration.
(§3) A common artificial tear formulation, 1% carboxymethylcelllulose (CMC) dissolved in balanced salt solution (BSS) was used as the peptide vehicle. Peptide (50 μM) or 1% CMC vehicle was topically administered to eyes three times a day, for 4 days.
Corneal epithelial injury was determined by staining with topical fluorescein (100 mg/ml or 10%; FLUORESCITE™, Alcon Laboratories). For dosing, topical fluorescein (0.6 μL of 0.5% sodium fluorescein dissolved in 4.4 μL BSS per eye) was applied via a micro-pipette to the lateral canthus for 15 sec. Corneal fluorescein staining was examined with a slit-lamp biomicroscope under cobalt blue light and photographed with a digital camera. Data is presented as mean±SD. Dye staining of the cornea was scored in a blinded manner as follows: score 0 for no punctuate staining; score 1 when less than one third of the cornea was stained; score 2 when two thirds or less was stained; and score 3 when more than two thirds was stained.

In experiment [2] the test system is Murine dry eye model. Description: Dry eye animal model, tear production by phenol red thread test. The conditions noted are these: treated for 4 days; P<0.01 versus vehicle treatment; FIG. 4. The format is in vivo, C57BL/6 mice. The procedure:
as §1, §2, §3
Tear production was measured with phenol red-impregnated cotton threads (Zone-Quick; Oasis, Glendora, Calif.). The validity of this test in mice was performed as previously described (Dursun et al., Invest Ophthalmol Vis Sci. 2002; 43:632-8). The threads were held with jeweler forceps and placed in the lateral canthus for 60 seconds. The tear production expressed in millimeters of thread wet by the tear and turned red.

In experiment [3] the test system is RPMI8226 cells. Briefly: Trypan blue exclusion assay. The conditions noted are these: vs solvent (DMSO) 7.5±1.3, FIG. 5. The format is cell-based, human. The procedure:
(§4) The multiple myeloma line RPMI8226 or rat Raw264.7 macrophages were cultivated in complex medium (RPMI1640) supplemented with 10% (vol/vol) heat-inactivated fetal calf serum (Invitrogen), 50 μg/mL penicillin, 50 μg/mL streptomycin, and 2 mM L-glutamine at 37° C. in a 5% CO2 atmosphere RPMI8226 cells or U266 cells were cultured in serum-free RPMI1640 medium for 24 h, and then cells seeded in 48-well culture plates (3×10^5 cells/well) and cultured in 0.5 ml fresh serum-free RPMI1640 medium containing 20 μM peptide for further 24 h. The cell viability was determined by the MTT assay. The cells were examined under a microscope with the aid of a hemacytometer, in which 0.1 mL of trypan blue stock solution (0.4% solution of trypan blue in isotonic salt buffer solution, pH 7.2) was added to 1 mL cell suspension, and loaded therein. The number of blue staining cells (considered non-viable) and the number of total cells were respectively counted. Cell viability should be at least 95% for healthy log-phase cultures.

The test system of another experiment is U266 cells. Description: Trypan blue exclusion assay. Type of experiment: cell-based, human. The conditions noted are these: vs solvent (DMSO) 8.7±1.1, FIG. 5. The procedure:
as §4, with “RPMI8226” for “The multiple myeloma line RPMI8226 or rat Raw264.7 macrophages were cultivated in complex medium (RPMI1640) supplemented with 10% (vol/vol) heat-inactivated fetal calf serum (Invitrogen), 50 μg/mL penicillin, 50 μg/mL streptomycin, and 2 mM L-glutamine at 37° C. in a 5% CO2 atmosphere RPMI8226”

The subject of experiment [4] is RPMI8226 cells. Description: Annexin V/propidium iodide apoptosis by flow cytometry. The format is cell-based, human. The conditions noted are these: treatment for 24 hr; control untreated cells less than 15%; FIG. 6. The procedure:
Annexin V/propidium iodide (PI) staining was performed using flow cytometry according to the manufacturer's guidelines (Annexin V-FITC Apoptosis Detection kit; Roche). Briefly, 0.5×10^6 cells were washed in ice-cold PBS without Ca^2+ or Mg^2+ (Life Technologies). The cells were then re-suspended in 100 μl of binding buffer and incubated with 5.0 μl of PI and 2.0 μl of annexin V-fluorescein isothiocynate for 15 min in the dark at room temperature. Flow cytometric analysis was immediately performed using a FACScalibur Instrument (Becton Dickinson).
A general note: Flow cytometry measures light scatter and fluorescence of single cells or particles in a stream.

Experiment [5] relates to Murine psoriasis vulgaris-like skin inflammation model. Description: IMQ-induced psoriasis vulgaris-like skin inflammation model, skin appearance. The format is in vivo, BALB/c mice. The conditions noted are these: 25 μM with IMQ cream, topical daily, six consecutive days; FIG. 7. The procedure:
(§5) BALB/c mice (8-weeks old females; n=42) were used in this model system. […] Accordingly, in this model, each BALB/c mice received a daily topical dose (62.5 mg) of commercially available IMQ cream (Imiquimod Cream 5% w/w, Aldara™) on the shaved back and the right ear for 6 consecutive days (n=6); whereas the control mice (normal group) were treated with a control cream (n=6). For treatment, each test peptide was mixed with IMQ cream to give a concentration of 25 μM (n=6 per group). Keratinocyte proliferation was determined by BrdU incorporation. BrdU (Sigma-Aldrich) was reconstituted in DMSO as a stock solution of 80 mM. 10 μl of BrdU mixed with 90 μl of PBS was intraperitoneally injected into each mouse for 24 hr prior to euthanasia.

Experiment [6] has the same test system. Briefly: IMQ-induced psoriasis vulgaris-like skin inflammation model, H&E histology of back skin. The format is in vivo, BALB/c mice. The conditions noted are these: for acanthosis, quantified epidermal thickness: 25 μM with IMQ cream, 6 days, IMQ control 122±10.5, FIG. 8 panel B. The procedure: as §5
Back skin of the mouse was fixed overnight in 4% paraformaldehyde, dehydrated with graded ethanol series, and paraffinized. Fixed samples were deparaffinized in xylene and rehydrated in a graded series of ethanol. Tissues were sliced into 5-μm sections. General histology was performed using hematoxylin and eosin (H&E) (Merck, Rayway, N.J., USA).
(§6) Slides were blocked with 10% goat serum for 60 min and then incubated with primary antibody against BrdU (1:50 dilution; GTX42641) for 3 hr at RT. The slides were then incubated with peroxidase-labeled donkey immunoglobulin for 30 min and then incubated with chromogen substrate (3,3′-diaminobenzidine) for 2 min before counterstaining with hematoxylin. Quantification was estimated based on high quality images (1208×960 pixels buffer) captured using a Nikon Eclipse 80i light microscope.

Experiment [7] has the same test system. Description: IMQ-induced psoriasis vulgaris-like skin inflammation model, keratinocyte proliferation by BrdU incorporation. The conditions noted are these: for hyperproliferation of keratinocytes, BrdU-positive cells in the epidermis (labeling index): 25 μM with IMQ cream, day 6, IMQ control 24.5±2.0, FIG. 9 panel B. Type of experiment: in vivo, BALB/c mice. The procedure: as §5, §6
In general terms: Uptake of a labelled nucleoside into DNA is a usual measure of proliferation.

In the case of “NH2-Asp-Ile-Thr-Tyr-Val-Arg-Leu-Lys-Phe-COOH (DITYVRLKF; not fully specified (N-terminus, C-terminus); printed as NH2-Asp-Ile-Thr-Tyr-Val-Arg-Leu-Lys-Phe-COOH) [9-mer, short synthetic peptide …]”, the “myeloma RPMI 8226 cell viability (MTT assay)” value in the experiment with myeloma RPMI 8226 cell is “successfully suppressed myeloma RPMI 8226 cell viability; also recorded: effective in suppressing myeloma cell viability”. In addition, in the experiment on Murine dry eye model [1], the “reduction in mean corneal fluorescein staining score compared with vehicle treated control mice” value is listed as “about 3 fold”. Further, the “corneal fluorescein stain (corneal damage), result in words” value with Murine dry eye model [1] (vs vehicle) is “reduced significantly”. In addition, the “tear volume (tear production)” value with Murine dry eye model [2] is reported as “significantly increased”. Also, the entries for the “cell viability by trypan blue assay” value with RPMI8226 cells [3] and with U266 cells were 59.7±4.5 and 47.0±4.6, respectively. Also, the “myeloma cells exhibiting apoptotic phosphatidylserine exposure (annexin-V staining)” value with RPMI8226 cells [4] is given as “approximately 54%”. The “skin inflammation and desquamation” value in [5] was “reduced level of dosal skin inflammation and desquamation”. Also, the “acanthosis, quantified epidermal thickness” value in experiment [6] is on record as 39.2±2.7 μm. Further, in experiment [6] (vs IMQ-treated skin sections, FIG. 8 panel A), the “acanthosis and desquamation in skin sections (H&E staining), result in words” value was “decrease in acanthosis and less desquamation”. In addition, the “hyperproliferation of keratinocytes, BrdU-positive cells in the epidermis (labeling index)” value in experiment [7] was determined as 8.3±1.4%. Besides, the “location of BrdU-positive cells in the epidermis” value in [7] (day 6 after IMQ treatment, FIG. 9 panel A) is listed as “restrict to the basal layer of the epidermis”.

For the substance “NH2-Lys-Ala-Phe-Asp-Ile-Thr-Tyr-Val-Arg-Leu-Lys-Phe-COOH (KAFDITYVRLKF; not fully specified (N-terminus, C-terminus); printed as NH2-Lys-Ala-Phe-Asp-Ile-Thr-Tyr-Val-Arg-Leu-Lys-Phe-COOH) [12-mer, 9-mer with additional 3 amino acid residues at the N-terminal]”, in the experiment on myeloma RPMI 8226 cell, the “myeloma RPMI 8226 cell viability (MTT assay)” value is “successfully suppressed myeloma RPMI 8226 cell viability; also recorded: effective in suppressing myeloma cell viability; also recorded: more potent at lower dose”. The “reduction in mean corneal fluorescein staining score compared with vehicle treated control mice” value with Murine dry eye model [1] is “about 3 fold”. Further, the “tear volume (tear production)” value with Murine dry eye model [2] is “significantly increased”. The “acanthosis, quantified epidermal thickness” value in [6] worked out at 35.3±4.1 μm. For the same substance, the “hyperproliferation of keratinocytes, BrdU-positive cells in the epidermis (labeling index)” value in experiment [7] is listed as 8.5±1.4%.
